Ends that are not written are not given here. * marks the point of attachment. Biotin = O=C1N[C@H]2[C@H](CS[C@H]2CCCCC(=O)*)N1
Legend:
[1] = system: PDZ-domain polypeptide (GST/PDZ fusion protein); assay: G assay (G0): biotinylated PL peptide 20 uM binding to immobilized GST/PDZ fusion protein; settings: G Assay of Example 3
Procedure: “G Assay”—Detection of PDZ-Ligand Binding Using Immobilized PDZ-Domain Fusion Polypeptide
In other assays, a GST/PDZ fusion protein is immobilized on a surface (“G” assay). The binding of labeled PL peptide (e.g., as listed in TABLE 8) to this surface is then measured. Typically, the assay is carried out as follows:
(1) A PDZ-domain polypeptide is bound to a surface, e.g. a protein binding surface. In a preferred embodiment, a GST/PDZ fusion protein containing one or more PDZ domains is bound to a polystyrene 96-well plate. […] In some instances, the GST/PDZ fusion protein is bound via an anti-GST antibody that is coated onto the 96-well plate. Adequate binding to the plate can be achieved when: • a. […]
(3) The binding of the biotinylated peptide to the GST/PDZ fusion protein surface can be detected using a variety of methods and detectors known to one of skill in the art. […] The reaction of the HRP and its substrate is terminated by addition of 100 uL per well of 1M sulfuric acid, and the absorbance of each well of the plate is read at 450 nm.
(4) Specific binding of a PL peptide and a PDZ domain polypeptide is determined by comparing the signal from the well(s) in which the PL peptide and PDZ domain polypeptide are combined, with the background signal(s). […]

[2] = system: Mouse T cell lines stimulated with anti-mouse CD3; assay: T cell stimulation assay, anti-mouse CD3, IFNγ ELISA (FIG. 1B); format: cell-based; settings: 10 μM Tat-peptide; compared to Tat-peptide alone
Procedure: Cell Cultures Cells were maintained and tested in RPMI 1640 media supplemented with 10% fetal calf serum (HyClone), 2 mM glutamine, 10 mM Hepes, 100 U/ml penicillin, 100 μg/ml streptomycin, 0.1 mM non-essential amino acids, 1 mM sodium pyruvate, and 50 μM beta mercaptoethanol.
Supernatants were assayed for cytokine production following activation of T cell lines. Mouse T cell lines were stimulated using two different methods, either with antigen and antigen presenting cells or anti-mouse CD3.
Antibody against mouse CD3 (Pharmigen #145-2C11) was coated overnight at 4° C. using 96-well flat bottom Elisa plates at a final concentration of 0.5 μg/ml, diluted in PBS. Just prior to use, plates were washed three times with 200 μl/well PBS to remove excess anti-CD3. […]
IFNγ was measured from cell supernatants, described above, at ambient temperature using the Endogen, Inc. ELISA protocol 3. […] The presence of IFNγ was detected with a biotin-labeled anti-mouse IFNγ monoclonal antibody (MM700B, Endogen, Inc.,). […] The absorbance at 450 nm was measured using a microtiter plate reader (Thermo Max, Molecular Devices) and the concentration of unknown IFNγ from cell supernatants was calculated from a standard curve generated by Softmax Pro software (Molecular Devices).

[3] = molecular target: T1, PDZ protein (GST-PDZ fusion) (Homo sapiens, UniProt O14907); assay: G' assay (10 uM PL peptide), results of TABLE 7 and TABLE 12; format: binding; settings: PDZ TIP1, PDZ Domain 1
T1 construct: made in house; host or cells: E. coli (DH5alpha, BL21 or JM109)
T1 sequence (O14907 1-124): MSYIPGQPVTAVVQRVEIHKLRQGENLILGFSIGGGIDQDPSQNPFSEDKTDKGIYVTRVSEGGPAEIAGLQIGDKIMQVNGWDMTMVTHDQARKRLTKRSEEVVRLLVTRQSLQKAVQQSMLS
Summary of the method: (§1)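 Same steps as the G-zero format, apart from a peptide concentration of 10 uM in place of 20 uM in step 2. Amino-terminally biotinylated PL peptides bind GST-PDZ fusions, and retained peptide is quantified by 450 nm absorbance.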

[4] = system: PDZ protein (GST-PDZ fusion); assay: as above; format: binding
Summary of the method: as §1

[5] = molecular target: T2, PDZ protein (GST-PDZ fusion) (Homo sapiens, UniProt Q02410); assay: as above; format: binding; settings: PDZ Mint 1, PDZ Domain 2
T2 construct: made in house; host or cells: E. coli (DH5alpha, BL21 or JM109)
T2 sequence (Q02410 1-837): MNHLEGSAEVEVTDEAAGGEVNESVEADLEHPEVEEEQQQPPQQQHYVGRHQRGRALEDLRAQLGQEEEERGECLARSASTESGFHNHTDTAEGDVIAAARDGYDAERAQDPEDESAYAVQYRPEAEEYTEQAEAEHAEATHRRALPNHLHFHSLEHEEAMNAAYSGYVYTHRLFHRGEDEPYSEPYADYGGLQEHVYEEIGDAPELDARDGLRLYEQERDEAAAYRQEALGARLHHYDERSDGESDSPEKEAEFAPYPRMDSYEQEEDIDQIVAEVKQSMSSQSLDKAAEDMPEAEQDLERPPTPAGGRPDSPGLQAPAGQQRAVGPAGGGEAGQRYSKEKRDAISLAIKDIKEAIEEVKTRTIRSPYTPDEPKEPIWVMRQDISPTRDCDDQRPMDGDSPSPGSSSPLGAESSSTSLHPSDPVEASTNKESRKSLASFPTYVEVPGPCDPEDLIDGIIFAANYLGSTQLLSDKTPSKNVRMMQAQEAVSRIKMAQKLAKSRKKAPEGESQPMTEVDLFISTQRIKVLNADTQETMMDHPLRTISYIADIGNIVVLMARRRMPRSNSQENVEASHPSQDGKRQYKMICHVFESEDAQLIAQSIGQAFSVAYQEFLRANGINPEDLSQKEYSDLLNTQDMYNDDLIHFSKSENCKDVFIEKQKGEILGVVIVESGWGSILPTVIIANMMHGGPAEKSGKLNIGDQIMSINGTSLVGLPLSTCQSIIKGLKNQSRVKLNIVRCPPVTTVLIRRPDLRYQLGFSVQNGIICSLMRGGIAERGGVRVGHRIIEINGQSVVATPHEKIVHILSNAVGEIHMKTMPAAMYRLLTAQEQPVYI
Summary of the method: as §1

[6] = molecular target: T3, PDZ protein (GST-PDZ fusion) (Homo sapiens, UniProt Q9Y2H9); assay: as above; format: binding; settings: PDZ KIAA0973, PDZ Domain 1
T3 construct: made in house; host or cells: E. coli (DH5alpha, BL21 or JM109)
T3 sequence (Q9Y2H9 whole entry, the tested form may be a part): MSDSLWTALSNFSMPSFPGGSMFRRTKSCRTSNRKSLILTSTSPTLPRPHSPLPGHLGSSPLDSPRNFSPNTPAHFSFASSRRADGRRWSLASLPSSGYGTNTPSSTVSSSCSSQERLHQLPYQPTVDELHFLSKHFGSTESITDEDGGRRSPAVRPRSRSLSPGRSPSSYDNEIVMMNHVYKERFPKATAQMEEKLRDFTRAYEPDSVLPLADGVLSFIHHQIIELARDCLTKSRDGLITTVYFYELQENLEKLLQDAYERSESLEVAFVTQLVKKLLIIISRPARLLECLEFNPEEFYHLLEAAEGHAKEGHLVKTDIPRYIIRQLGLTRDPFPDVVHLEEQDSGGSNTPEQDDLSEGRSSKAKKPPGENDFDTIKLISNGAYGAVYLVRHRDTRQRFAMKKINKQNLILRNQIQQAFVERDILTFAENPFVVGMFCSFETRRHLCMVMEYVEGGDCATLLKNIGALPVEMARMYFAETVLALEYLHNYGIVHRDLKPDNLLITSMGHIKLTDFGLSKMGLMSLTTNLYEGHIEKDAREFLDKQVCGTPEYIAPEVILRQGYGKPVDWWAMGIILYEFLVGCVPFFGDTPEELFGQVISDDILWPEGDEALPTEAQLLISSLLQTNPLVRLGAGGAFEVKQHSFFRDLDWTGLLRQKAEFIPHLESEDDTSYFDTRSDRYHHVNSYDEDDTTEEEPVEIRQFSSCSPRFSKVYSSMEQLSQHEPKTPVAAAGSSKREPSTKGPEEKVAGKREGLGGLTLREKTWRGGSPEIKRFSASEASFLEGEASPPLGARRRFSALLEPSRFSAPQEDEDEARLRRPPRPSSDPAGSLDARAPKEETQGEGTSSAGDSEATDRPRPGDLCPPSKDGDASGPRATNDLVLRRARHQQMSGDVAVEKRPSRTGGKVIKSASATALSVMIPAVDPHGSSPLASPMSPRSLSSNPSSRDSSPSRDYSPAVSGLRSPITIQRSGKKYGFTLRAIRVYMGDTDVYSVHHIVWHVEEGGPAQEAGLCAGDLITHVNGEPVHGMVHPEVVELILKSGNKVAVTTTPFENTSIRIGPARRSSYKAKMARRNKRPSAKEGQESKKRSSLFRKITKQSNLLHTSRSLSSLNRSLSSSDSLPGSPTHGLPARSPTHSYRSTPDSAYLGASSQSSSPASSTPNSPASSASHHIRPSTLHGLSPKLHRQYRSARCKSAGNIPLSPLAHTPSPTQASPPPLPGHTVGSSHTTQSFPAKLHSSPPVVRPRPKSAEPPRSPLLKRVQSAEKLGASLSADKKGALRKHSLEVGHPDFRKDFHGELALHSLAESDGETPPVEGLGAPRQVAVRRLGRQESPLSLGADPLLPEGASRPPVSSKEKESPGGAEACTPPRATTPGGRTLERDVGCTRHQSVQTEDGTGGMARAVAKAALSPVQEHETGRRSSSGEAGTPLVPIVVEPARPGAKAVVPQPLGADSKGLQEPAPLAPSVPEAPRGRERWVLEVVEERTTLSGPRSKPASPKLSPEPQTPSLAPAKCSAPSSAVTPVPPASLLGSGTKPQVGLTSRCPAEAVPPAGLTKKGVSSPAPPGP
Summary of the method: as §1

[7] = molecular target: T4, KIAA807 (Homo sapiens, UniProt Q6P0Q8); assay: G' assay, TABLE 12; format: binding; settings: A450 nm class of biotinylated PL peptide bound; 0 in conc columns = peptide 10 uM, protein 5 ug/ml
T4 construct: made in house; host or cells: E. coli (DH5alpha, BL21 or JM109)
T4 sequence (Q6P0Q8 1104-1192 limits assumed): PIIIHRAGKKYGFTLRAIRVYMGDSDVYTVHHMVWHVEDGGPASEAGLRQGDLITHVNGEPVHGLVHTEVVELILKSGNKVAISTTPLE
Procedure: (§2) The third column labeled “Peptide Optimal Concentration” in the tables is a number reflective of the binding interaction between the PL protein and PDZ protein. […] The column labeled “Protein Optimal Concentration” refers to the protein concentration used to assay PL interaction (in ug/ml); a ‘0’ is indicative of 5 ug/ml protein concentration; any other value represents the concentration (in ug/ml) used to determine the dissociation constant for a given interaction.
(§3) Finally, the seventh column labeled “Classification” is another measure of the level of binding. In particular, it provides an absorbance value at 450 nm which indicates the amount of PL peptide bound to the PDZ protein. The following numerical values have the following meanings: ‘1’—A450 nm 0-1; ‘2’—A450 nm 1-2; ‘3’—A450 nm 2-3; ‘4’—A450 nm 3-4; ‘5’—A450 nm of 4 more than 2× repeated; ‘0’—A450 nm 0, i.e., not found to interact. Thus, higher numbers indicate stronger interactions.
(§4) For convenience, the assay conditions described in this section are referred to as the “G′ assay” and the “G″ assay,” with the specific conditions described in the preceding section on G assays being referred to as the “G^0 assay.” The “G′ assay” is identical to the “G^0 assay” except at step (2) the peptide concentration is 10 uM instead of 20 uM. […] Correspondingly, it slightly increases the certainty that detected interactions are of sufficient affinity and half-life to be of biological importance and useful therapeutic targets.

[8] = molecular target: T5, Mint 1 (PDZ Domain 1, 2) (Homo sapiens, UniProt Q02410); assay: G' assay, TABLE 12; format: binding; settings: A450 nm class of biotinylated PL peptide bound; 0 in conc columns = peptide 10 uM, protein 5 ug/ml
T5 construct: When more than one PDZ domain was cloned, the DNA portion cloned represents the PDZ domains and the cDNA portion located between individual domains; made in house; host or cells: E. coli (DH5alpha, BL21 or JM109)
T5 sequence (Q02410 652-828 limits assumed): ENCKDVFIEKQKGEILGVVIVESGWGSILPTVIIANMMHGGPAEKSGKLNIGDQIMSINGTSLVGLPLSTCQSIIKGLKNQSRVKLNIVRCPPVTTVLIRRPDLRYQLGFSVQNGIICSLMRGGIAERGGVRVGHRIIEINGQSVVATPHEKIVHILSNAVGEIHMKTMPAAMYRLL
Procedure: as §2, §3, §4

[9] = molecular target: T6, KIAA0807(S) (PDZ Domain 1) (Homo sapiens, UniProt Q6P0Q8); assay: G' assay and Kd titration, TABLE 12; format: binding; settings: A450 nm class of biotinylated PL peptide bound; 0 in conc columns = peptide 10 uM, protein 5 ug/ml
T6 construct: made in house; host or cells: E. coli (DH5alpha, BL21 or JM109)
T6 sequence (Q6P0Q8 with tags, fused parts or gaps): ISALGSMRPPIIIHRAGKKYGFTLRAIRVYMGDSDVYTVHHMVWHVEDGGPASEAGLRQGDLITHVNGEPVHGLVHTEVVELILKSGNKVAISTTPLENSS
Procedure: as §2, §3
For convenience, the assay conditions described in this section are referred to as the “G′ assay” and the “G″ assay,” with the specific conditions described in the preceding section on G assays being referred to as the “G^0 assay.” The “G′ assay” is identical to the “G^0 assay” except at step (2) the peptide concentration is 10 uM instead of 20 uM.

Sequence: HAMNAAPRAMENAPALRTSH (Biotin-HAMNAAPRAMENAPALRTSH) [HPV E6 57]
- binding of E6 C-terminal peptides to a variety of PDZ domains [1]: did not bind any of the PDZ domains tested

Sequence: GYGRKKRRQRRRGSISSSAEV [Tat-CLASP1 fusion peptide]
- T cell activation mediated by monoclonal anti-CD3 (IFNγ production) [2]: did not inhibit T cell activation

Sequence: GGGRGSGLAGGSRGGGQSRQ [HPV E6 77]
- binding of E6 C-terminal peptides to a variety of PDZ domains [1]: did not bind any of the PDZ domains tested
- Classification [3]: 0 (A450 nm 0, i.e., not found to interact)
- Classification ([4]; PDZ BAI-1, PDZ Domain 2): 0 (A450 nm 0, i.e., not found to interact)

Sequence: KKGTYLTDETHREVKFTSL (Biotin-KKGTYLTDETHREVKFTSL) [CD46]
- Classification [5]: 1 (A450 nm 0-1)
- Classification [6]: 2 (A450 nm 1-2)
- Classification ([4]; PDZ BAI-1, PDZ Domain 5): 1 (A450 nm 0-1)
- PDZ proteins bound by the PL (TABLE 7) ([4]; as cited in the text from TABLE 7): KIAA0973, Mint 1, KIAA807, BAI-1, KIA0807(S)
- Classification [7]: 4 (A450 nm 3-4)
- Classification [8]: 1 (A450 nm 0-1)
- Classification [9]: 5 (A450 nm of 4 more than 2× repeated)

Sequence: GYGRKKRRQRRRGMTSSSSVV
- T cell activation mediated by monoclonal anti-CD3 (IFNγ production) [2]: inhibited T cell activation

Source: US20050282743A1, “Molecular interactions in cells” (Arbor Vita Corporation, priority 2001, published 2005)
